Assay results as given in the supplement of paper PMC10307832.

Tests used:
Experiment in all cases: relative viability (nuclei count vs DMSO), 5 days (fraction); higher = more cells survive
GSK-J4 + Foretinib = compound: CCOC(=O)CCNc1cc(N2CCc3ccccc3CC2)nc(-c2ccccn2)n1 [GSK-J4] + COc1cc2c(Oc3ccc(NC(=O)C4(C(=O)Nc5ccc(F)cc5)CC4)cc3F)ccnc2cc1OCCCN1CCOCC1 [Foretinib] (partner 0.25 µM)
How it was run: (§1)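 Lung cancer cell lines in 1536-well plates were dosed by pin tool the day after seeding, either with one drug alone or with a fixed anchor-drug dose plus five library-drug doses (not always all listed) in √10 steps. After 5 days, cells were fixed and their nuclei stained in one step (final 0.05% Triton X-100, 1% formaldehyde, 1 ug/ml Hoechst), then counted on 4× images. Relative viability is the nuclei count in treated wells divided by that in vehicle wells. Values are medians of duplicate plates.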

AZ3146 + Trametinib = compound: CN1CCC(CC1)OC2=CC(=C(C=C2)NC3=NC=C4C(=N3)N(C(=O)N4C)C5CCCC5)OC [AZ3146] + CC(=O)Nc1cccc(-n2c(=O)n(C3CC3)c(=O)c3c(Nc4ccc(I)cc4F)n(C)c(=O)c(C)c32)c1 [Trametinib] (partner 0.02 µM)
How it was run: as §1

AZ3146 + Navitoclax = compound: CN1CCC(CC1)OC2=CC(=C(C=C2)NC3=NC=C4C(=N3)N(C(=O)N4C)C5CCCC5)OC [AZ3146] + CC1(C)CCC(c2ccc(Cl)cc2)=C(CN2CCN(c3ccc(C(=O)NS(=O)(=O)c4ccc(N[C@H](CCN5CCOCC5)CSc5ccccc5)c(S(=O)(=O)C(F)(F)F)c4)cc3)CC2)C1 [Navitoclax] (partner 0.5 µM)
How it was run: as §1

GSK-J4 + Vorinostat = compound: CCOC(=O)CCNc1cc(N2CCc3ccccc3CC2)nc(-c2ccccn2)n1 [GSK-J4] + O=C(CCCCCCC(=O)Nc1ccccc1)NO [Vorinostat] (partner 1 µM)
How it was run: as §1

| Cell Line | relative viability (GSK-J4 + Foretinib; first compound 0.5 µM) | relative viability (GSK-J4 + Foretinib; first compound 1.581 µM) | relative viability (GSK-J4 + Foretinib; first compound 15.81 µM) | relative viability (GSK-J4 + Foretinib; first compound 50 µM) | relative viability (AZ3146 + Trametinib; first compound 0.08 µM) | relative viability (AZ3146 + Trametinib; first compound 0.253 µM) | relative viability (AZ3146 + Trametinib; first compound 0.8 µM) | relative viability (AZ3146 + Trametinib; first compound 2.53 µM) | relative viability (AZ3146 + Trametinib; first compound 8 µM) | relative viability (AZ3146 + Navitoclax; first compound 0.08 µM) | relative viability (AZ3146 + Navitoclax; first compound 0.253 µM) | relative viability (AZ3146 + Navitoclax; first compound 0.8 µM) | relative viability (AZ3146 + Navitoclax; first compound 2.53 µM) | relative viability (AZ3146 + Navitoclax; first compound 8 µM) | relative viability (GSK-J4 + Vorinostat; first compound 0.5 µM) | relative viability (GSK-J4 + Vorinostat; first compound 1.581 µM) | relative viability (GSK-J4 + Vorinostat; first compound 15.81 µM) | relative viability (GSK-J4 + Vorinostat; first compound 50 µM) | relative viability (GSK-J4 + Foretinib; first compound 5 µM) | relative viability (GSK-J4 + Vorinostat; first compound 5 µM) |
| --- | --- | --- | --- | --- | --- | --- | --- | --- | --- | --- | --- | --- | --- | --- | --- | --- | --- | --- | --- | --- |
| HCC-366 | 0.955 | 0.881 | 0.915 | 0.874 | 0.31 | 0.412 | 0.311 | 0.341 | 0.316 | 1.01 | 0.958 | 1.06 | 1.16 | 1.14 | 0.284 | 0.287 | 0.285 | 0.34 | – | – |
| HCC-827 | 1.02 | 1.07 | 0.955 | 0.847 | 0.63 | 0.498 | 0.481 | 0.554 | 0.477 | 0.964 | 1.02 | 0.997 | 1.02 | 0.998 | 0.873 | 0.731 | 0.774 | 0.787 | 1.05 | 0.782 |
| HOP-62 | 1 | 0.882 | 1.03 | 0.766 | 0.451 | 0.354 | 0.325 | 0.387 | 0.389 | 1.08 | 1.05 | 0.938 | 1.13 | 0.913 | 0.48 | 0.355 | 0.507 | 0.35 | 1.02 | 0.585 |
| IA-LM | 1.09 | 1.15 | 1.16 | 0.334 | – | – | – | – | – | 0.713 | 0.785 | 0.699 | 0.881 | 0.156 | 0.901 | – | 0.711 | 0.294 | 1.32 | 1.34 |
| LC-2-ad | 0.909 | 0.763 | 0.781 | 0.775 | 0.858 | 0.928 | 0.928 | 0.894 | 0.902 | 0.425 | 0.385 | 0.649 | 0.519 | 0.685 | 0.787 | 0.529 | 0.704 | 0.528 | 0.868 | 0.325 |
| LCLC-97TM1 | 0.972 | 0.953 | 0.856 | 0.561 | 0.268 | 0.2 | 0.157 | 0.184 | 0.223 | – | – | 0.541 | 0.361 | 0.544 | 0.684 | 0.442 | 0.507 | 0.578 | 0.909 | 0.681 |
| LCLC-103H | 0.8 | 0.617 | 0.593 | 0.52 | 0.619 | 0.663 | 0.721 | 0.666 | 0.653 | – | – | – | – | – | 0.77 | 0.671 | 0.675 | 0.546 | 0.789 | 0.624 |
| LK-2 | 1.26 | – | 0.794 | 0.805 | 0.591 | 0.684 | 0.956 | 0.914 | 0.747 | 0.686 | 0.889 | 0.994 | 0.911 | 0.929 | 0.193 | 0.248 | 0.126 | 0.579 | 1.31 | 0.243 |
